From publication PMC3509539, “seco-Briarellinone and Briarellin S, Two New Eunicellin-Based Diterpenoids from the Panamanian Octocoral Briareum asbestinum” (Marine Drugs, 2012)
Values joined by “and” are separate entries in the source; they are usually repeats but may differ in a detail not shown here. Equal entries are not always repeated.

Legend:
[1] = test system: NO production by thioglycolate elicited peritoneal macrophages from C57Bl/6 mice stimulated with LPS; test: Inhibition of NO production induced by LPS in macrophages (Griess); format: cell-based, mouse (C57Bl/6); conditions: LPS 1 μg/mL; for IC50: Mus musculus, Peritoneal macrophage, primary murine macrophages, compound added 1 h before the stimulus, NO after 24 h
Text: The anti-inflammatory properties of diterpenes from natural sources have been described previously. However, anti-inflammatory activity of the briarellins family has not been evaluated before. The inhibition of NO production is frequently used as an indicator of anti-inflammatory activity. NO is produced by a family of enzymes called NO synthases (NOS) and it mediates many physiological processes. Inflammatory conditions lead to production of high levels of NO regulated by the inducible NOS (iNOS) enzyme. NO is produced by many cell types in vitro in response to several stimuli such as microbial products (e.g., bacterial lipopolisacharide (LPS)), cytokines, viral proteins, among others. We evaluated the production of NO by primary murine macrophages stimulated with LPS (1 μg/mL) in the presence or absence of different concentrations of compounds 1–3. […] The levels of NO found at higher concentrations (20 μg/mL) of compound 1 might be attributed to the non pyrogen-free conditions of the isolation and purification process of compounds. Possible contaminations with potential microbial products in the compounds preparations disguise the inhibitory effect expected at these concentrations. […] Further studies are necessary to find out if compound 3 is able to inhibit other signaling pathways leading to the production of inflammatory mediators different than NO.
Figure 4 Inhibition of nitric oxide (NO) production induced by lipopolisacharides (LPS) in macrophages. […] (B) Cell viabilities were assessed using 3-(4,5-dimethylthiazol-2-yl)-2,5-diphenyltetrazolium bromide (MTT) assay after collection of the supernatant. […]
To determine the anti-inflammatory capacity of compounds 1–3, thioglycolate elicited macrophages from C57Bl/6 mice were used. […] The concentration of NO was measured using the Griess Reagent System from Promega. […]
Data are presented as mean ± S.E.M. Results were analyzed using a statistical software package (GraphPad Prism 5). […]

[2] = test system: peritoneal macrophages from C57Bl/6 mice; test: Cytotoxicity testing, MTT assay; format: cell-based, mouse (C57Bl/6); conditions: inhibitory concentrations 5–20 μg/mL, macrophages after collection of the supernatant
Description: Figure 4 Inhibition of nitric oxide (NO) production induced by lipopolisacharides (LPS) in macrophages. (A) Peritoneal macrophages from C57Bl/6 mice were treated with different concentrations of compounds 1–3 (1, 2, 5, 10, or 20 μg/mL) 1 h before the stimulus with LPS (1 μg/mL). After 24 h of stimulus with LPS, supernatants were collected for NO determination. (B) Cell viabilities were assessed using 3-(4,5-dimethylthiazol-2-yl)-2,5-diphenyltetrazolium bromide (MTT) assay after collection of the supernatant. Results represent mean ± S.E.M. and are representative of two different experiments. * P < 0.005 compared with LPS stimulus alone. C, control; Comp, compound. To evaluate the cytotoxicity of compounds 1–3, we used the MTT (Methylthiazolyldiphenyl-tetrazolium bromide) assay. Cell supernatants were removed for NO determination and were added to each well, 100 μL of MTT at a concentration of 0.5 mg/mL dissolved in RPMI. The assay plate was incubated overnight at 37 °C in 5% of CO2 atmosphere. In this assay the MTT is reduced to formazan by the activity of NAD-dependent dehydrogenase of living cell mitochondria to form a purple product. […] The color was analyzed at 570 nm using a micro-ELISA plate reader. The percent of viable cells was calculated using the formula: % viability = (ODsample × 100%)/(ODcontrol). […]

| Structure (SMILES) | IC50 [1] | Cell viability (MTT) [2] | Effect on the production of NO induced by LPS in macrophages ([1]; 1, 2, 5, 10 or 20 μg/mL, 24 h) |
| --- | --- | --- | --- |
| CC(=O)CC1OC2C3C(CC(=O)C(C)(O)C13)C(C)COC2(C)C=CC=O (centres unmarked) [compound 1, seco-Briarellinone] | 1.71 µg/mL and 4.7 µM | do not interfere with the cell viability | – |
| C=C1CC2OC3C4C(CC(=O)C(C)(O)C24)C(C)COC3(C)C(OC(=O)CCCCCCC)CC1O (centres unmarked) [compound 2, Briarellin S] | 10 µg/mL and 20.4 µM | do not interfere with the cell viability | – |
| CC(=O)CC1OC2[C@@H]3C(C[C@H](C)[C@H](OC(C)=O)[C@H]13)[C@H](C)CO[C@]2(C)/C=C/C=O (some centres unmarked) [compound 3, seco-asbestinin] | – | – | did not show any significant effect |
